Source: the supplement of paper PMC11208160

assay: recombinant UMI read abundance after kanamycin selection (control-corrected) (log10(CPM+1)); higher = more efficient recombination; extreme values may be limits of the assay; sequences stand for … in AGTGCAGAGAAAATCGGCCAGTTTTCTCTGCCTGCAGTCCGCATGCCGTGGGACCCCTTGGGTTCTAACCTGTTGCCTAGATTTATGCAGCGGACTGCCTTTCTCCCAAAGTGATAAACCGG…AGGTTGGTTTCACT; site = the 11-nt donor
Procedure: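 Pooled E. coli donor-specificity screen for the IS621 bridge recombinase. Each library member carries a reprogrammed 11-nt donor and a full-length LE bridge RNA expressed in cis from the natural promoter, with a paired donor-binding loop (8-nt LDG + 4-nt RDG) and a target-binding loop fixed to T5. It is co-electroporated with a T5 target plasmid; recombinase is induced with 0.07 mM IPTG and recombinants are selected on kanamycin. UMIs are counted as CPM, averaged over two biological replicates and corrected by the unselected control. Molecule = full bridge RNA written as DNA, built from the T5 scaffold: LDG = donor specificity nt 1-8, RDG = reverse complement of nt 8-11.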
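Also: IS621 bridge recombinase in Escherichia coli cells against a fixed T5 target plasmid.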

Sequence	recombinant UMI read abundance (log10)
AGTCTGACATGGACCGGTTTTCCCGGTAATCCGTATTTGCT (site AGTCTGACTAG)	1.87
TCATACTCATGGACCGGTTTTCCCGGTAATCCGTATTTGCG (site TCATACTCTAG)	0
GCGCCGACATGGACCGGTTTTCCCGGTAATCCGTATTTGAC (site GCGCCGACTGT)	2.07
ATCTATACATGGACCGGTTTTCCCGGTAATCCGTATTTGAC (site ATCTATACTGA)	0.0717
TAGAAAACATGGACCGGTTTTCCCGGTAATCCGTATTTGCA (site TAGAATACTTG)	0
GAAGGTACATGGACCGGTTTTCCCGGTAATCCGTATTTGAC (site GGAGGTACTGT)	0
CGTAAAGCATGGACCGGTTTTCCCGGTAATCCGTATTTGAT (site CATAAAGCTAT)	0.355
TCAGTATCATGGACCGGTTTTCCCGGTAATCCGTATTTGTA (site TCAGTATCTTA)	2.5
CGATGATCATGGACCGGTTTTCCCGGTAATCCGTATTTGCT (site CGATGATCTAG)	2.46
GTAGGCTCATGGACCGGTTTTCCCGGTAATCCGTATTTGTG (site GTAGGCTCTCA)	1.4
AGCCTTTCATGGACCGGTTTTCCCGGTAATCCGTATTTGAG (site AGCCTTTCTGT)	0
TCCATCGCATGGACCGGTTTTCCCGGTAATCCGTATTTGCG (site TCCACCGCTCG)	0.0339
CTAGTATCATGGACCGGTTTTCCCGGTAATCCGTATTTGAC (site CTAGTGTCTGC)	0
TCGCTAGCATGGACCGGTTTTCCCGGTAATCCGTATTTGAA (site TCGCTAGCTTT)	0.00622
AGCTCAGCATGGACCGGTTTTCCCGGTAATCCGTATTTGGG (site AGCTCACCTCC)	0.00337
AAATCAGCATGGACCGGTTTTCCCGGTAATCCGTATTTGTT (site AAATCAGCTAA)	0.425
GAAGATTCATGGACCGGTTTTCCCGGTAATCCGTATTTGTA (site GAAGATTCTCA)	1.55
GGATTGACATGGACCGGTTTTCCCGGTAATCCGTATTTGCC (site GGATCGACTGG)	1.06
GGGGCCCCATGGACCGGTTTTCCCGGTAATCCGTATTTGGC (site GGGGCCCCTGC)	0
ATACTAACATGGACCGGTTTTCCCGGTAATCCGTATTTGGA (site TTACTAACTTC)	2.05
TAGTACTCATGGACCGGTTTTCCCGGTAATCCGTATTTGAT (site TAGTACTCTAT)	2.53
TACATGACATGGACCGGTTTTCCCGGTAATCCGTATTTGGT (site TACATGACTAC)	0.581
GGGCCGGCATGGACCGGTTTTCCCGGTAATCCGTATTTGGC (site GGGCCGGCTGC)	0
TGACTTTCATGGACCGGTTTTCCCGGTAATCCGTATTTGAG (site TGACTTTCTCT)	0

Sequence	recombinant UMI read abundance (log10)
GAATGGCCATGGACCGGTTTTCCCGGTAATCCGTATTTGGA (site GAATGGCCTTT)	0.0129
TCTTACTCATGGACCGGTTTTCCCGGTAATCCGTATTTGCA (site TCCTACTCTTG)	1.09
CTAGTCCCATGGACCGGTTTTCCCGGTAATCCGTATTTGGA (site CTAGTCCCTTC)	0.281
CGATGGACATGGACCGGTTTTCCCGGTAATCCGTATTTGTT (site CGATCGACTAA)	0.00844
GTGAGAACATGGACCGGTTTTCCCGGTAATCCGTATTTGGC (site GTAAGAACTGC)	2.2
GGGTAGACATGGACCGGTTTTCCCGGTAATCCGTATTTGCC (site GGCTAGACTGG)	0
AGGGAGCCATGGACCGGTTTTCCCGGTAATCCGTATTTGCC (site AGGGAGCCTGG)	0
AACCGACCATGGACCGGTTTTCCCGGTAATCCGTATTTGAT (site AACCGCCCTAT)	0
TCGCTAGCATGGACCGGTTTTCCCGGTAATCCGTATTTGAA (site TTGCTAGCTTT)	0.0117
CGGATTCCATGGACCGGTTTTCCCGGTAATCCGTATTTGCT (site CGGATTCCTAG)	0
TTCACCGCATGGACCGGTTTTCCCGGTAATCCGTATTTGCG (site TCCACCGCTCG)	0.017
AAGGGCCCATGGACCGGTTTTCCCGGTAATCCGTATTTGGC (site AAGGGCCCTGC)	0.674
GCGAGAACATGGACCGGTTTTCCCGGTAATCCGTATTTGCT (site GCGAGAACTAG)	2.24
CGAAGATCATGGACCGGTTTTCCCGGTAATCCGTATTTGCT (site CGAAGATCTAG)	1.51
TCAGTGACATGGACCGGTTTTCCCGGTAATCCGTATTTGCG (site TCAGGGACTCG)	0.00386
GCGAAACCATGGACCGGTTTTCCCGGTAATCCGTATTTGGG (site GCGAACCCTCC)	0.0118
CGGACATCATGGACCGGTTTTCCCGGTAATCCGTATTTGCG (site CGGACATCTTG)	0.00626
CGCTCAGCATGGACCGGTTTTCCCGGTAATCCGTATTTGGG (site AGCTCAGCTCC)	0
TACACCGCATGGACCGGTTTTCCCGGTAATCCGTATTTGCG (site TACACCGCTCG)	0.0108
GGATCATCATGGACCGGTTTTCCCGGTAATCCGTATTTGCT (site CGATCATCTAG)	0.511
TCTGCTGCATGGACCGGTTTTCCCGGTAATCCGTATTTGGC (site TCTGCTGCTGC)	0
CTAGTATCATGGACCGGTTTTCCCGGTAATCCGTATTTGAC (site GTAGTATCTAT)	0
AGCTCAGCATGGACCGGTTTTCCCGGTAATCCGTATTTGGG (site AGGTCAGCTCC)	0.00833
CGTTATACATGGACCGGTTTTCCCGGTAATCCGTATTTGAG (site CGTTACACTCT)	0.0313

Sequence	recombinant UMI read abundance (log10)
CAATACACATGGACCGGTTTTCCCGGTAATCCGTATTTGCA (site CAATACACTTG)	2.2
TCAGAGACATGGACCGGTTTTCCCGGTAATCCGTATTTGCG (site TCAGGGACTCG)	0.0144
CGCCGAACATGGACCGGTTTTCCCGGTAATCCGTATTTGCT (site CGCCGTACTAG)	0.00823
CTAGTATCATGGACCGGTTTTCCCGGTAATCCGTATTTGAC (site CTCATATCTGT)	0.632
CGTTATCCATGGACCGGTTTTCCCGGTAATCCGTATTTGTC (site CGTTATCCTGA)	1.46
AGCTCAACATGGACCGGTTTTCCCGGTAATCCGTATTTGGG (site AGCTCAGCTCC)	0
AATTATGCATGGACCGGTTTTCCCGGTAATCCGTATTTGGC (site AATTATGCTAC)	0.00687
ACGAGAACATGGACCGGTTTTCCCGGTAATCCGTATTTGCC (site ACGAGAACTGG)	2.44
CTGCTAACATGGACCGGTTTTCCCGGTAATCCGTATTTGCT (site CTGCTAGCTAG)	0.313
TGATCATCATGGACCGGTTTTCCCGGTAATCCGTATTTGCG (site CGATCATCTAG)	0
CTAGTATCATGGACCGGTTTTCCCGGTAATCCGTATTTGAC (site CTTGTATCTAT)	0
GCCGTCCCATGGACCGGTTTTCCCGGTAATCCGTATTTGCA (site GCCGTCCCTTG)	0.345
TGTACACCATGGACCGGTTTTCCCGGTAATCCGTATTTGAA (site TGTACACCTTT)	0.0198
ACACATACATGGACCGGTTTTCCCGGTAATCCGTATTTGAC (site ACACATCCTGT)	0
TAGCATTCATGGACCGGTTTTCCCGGTAATCCGTATTTGGT (site TAGCCTTCTAC)	0.00694
GAATGGCCATGGACCGGTTTTCCCGGTAATCCGTATTTGCG (site GAATGGCCTCG)	0.0153
GGAGTGACATGGACCGGTTTTCCCGGTAATCCGTATTTGGT (site GGAGTGGCTAC)	0.259
AGCACCACATGGACCGGTTTTCCCGGTAATCCGTATTTGCA (site AGCACCACTTG)	2.15
AGTGCCCCATGGACCGGTTTTCCCGGTAATCCGTATTTGCT (site AGTGCCCCTAG)	0.594
TTAGCTGCATGGACCGGTTTTCCCGGTAATCCGTATTTGTG (site TTTGCTGCTCA)	0.00733
CTAGTATCATGGACCGGTTTTCCCGGTAATCCGTATTTGAC (site CTAGTATCTCA)	0.333
AGGCACTCATGGACCGGTTTTCCCGGTAATCCGTATTTGCA (site AGGCACTCTTG)	2.66
CTAGTATCATGGACCGGTTTTCCCGGTAATCCGTATTTGAC (site CTAGTATCTGA)	1.14
CAATTCCCATGGACCGGTTTTCCCGGTAATCCGTATTTGCT (site CAATTCCCTAG)	0.879
